These results are taken from patent publication US11613768B2, “Microbial production of 2-phenylethanol from renewable substrates” (Arizona Board of Regents on behalf of Arizona State …, priority 2017, dated 2023).

One may read the Km as the substrate concentration at which the rate is half of its maximum.

The subject of one data set is E. coli NST74. The data set is described as follows: Assaying 2PE toxicity: growth challenge with exogenous 2PE. The format is cell-based, Escherichia coli. Here is the method:
Error bars reported at one standard deviation from triplicate experiments.
The effects of 2PE on E. coli growth rate and yield was determined by monitoring the impacts of its exogenous addition at increasing final concentrations on growing cultures. Approximately 1 ml of an E. coli NST74 seed culture was used to inoculate 50 ml of LB broth in a 250 mL shake flask. When cultures reached OD600˜0.6, 2PE was added to the flasks at an array of final concentrations ranging from 0 to 2 g/L. Culturing then resumed for an additional 6 h with periodic monitoring of OD600.
To assess if 2PE production in these initial strains was perhaps limited by end-product inhibition, a growth challenge study was performed determine to the response of E. coli growth to the addition of exogenous 2PE at a range of increasing final concentrations (FIG. 4).

For a further data set, the system named is E. coli. Particulars: prior report, Kang et al., 2014; cited from earlier work.
The next data set concerns the target T1, ARO10 (Saccharomyces cerevisiae, UniProt Q06408).
T1 sequence (Q06408 1-635): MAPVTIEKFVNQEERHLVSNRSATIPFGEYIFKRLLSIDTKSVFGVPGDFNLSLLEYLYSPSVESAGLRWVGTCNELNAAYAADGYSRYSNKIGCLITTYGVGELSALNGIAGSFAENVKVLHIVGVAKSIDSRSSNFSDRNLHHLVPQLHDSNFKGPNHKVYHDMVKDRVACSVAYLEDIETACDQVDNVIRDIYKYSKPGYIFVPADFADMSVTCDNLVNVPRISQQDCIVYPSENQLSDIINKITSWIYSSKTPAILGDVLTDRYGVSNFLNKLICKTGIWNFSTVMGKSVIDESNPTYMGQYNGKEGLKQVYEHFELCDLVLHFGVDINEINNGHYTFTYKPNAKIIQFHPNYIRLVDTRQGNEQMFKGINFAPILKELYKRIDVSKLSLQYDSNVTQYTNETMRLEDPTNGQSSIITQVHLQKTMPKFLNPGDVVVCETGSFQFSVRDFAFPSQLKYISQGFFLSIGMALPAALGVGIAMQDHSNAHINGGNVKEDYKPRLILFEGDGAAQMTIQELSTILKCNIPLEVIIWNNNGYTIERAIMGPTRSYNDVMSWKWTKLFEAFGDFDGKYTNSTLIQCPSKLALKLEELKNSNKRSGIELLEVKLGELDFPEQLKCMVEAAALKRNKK
To be noted: ARO10 (PPDC), substrate phenylpyruvate; cited from earlier work.

In another data set the target is TyrB (Escherichia coli, UniProt P04693). To be noted: TyrB (Phe aminotransferase), substrate phenylpyruvate; cited from earlier work.
Where [1] appears, read: exogenous 2PE added at OD600~0.6, LB broth, 6 h monitoring of OD600.

TyrB, sequence (P04693 whole entry): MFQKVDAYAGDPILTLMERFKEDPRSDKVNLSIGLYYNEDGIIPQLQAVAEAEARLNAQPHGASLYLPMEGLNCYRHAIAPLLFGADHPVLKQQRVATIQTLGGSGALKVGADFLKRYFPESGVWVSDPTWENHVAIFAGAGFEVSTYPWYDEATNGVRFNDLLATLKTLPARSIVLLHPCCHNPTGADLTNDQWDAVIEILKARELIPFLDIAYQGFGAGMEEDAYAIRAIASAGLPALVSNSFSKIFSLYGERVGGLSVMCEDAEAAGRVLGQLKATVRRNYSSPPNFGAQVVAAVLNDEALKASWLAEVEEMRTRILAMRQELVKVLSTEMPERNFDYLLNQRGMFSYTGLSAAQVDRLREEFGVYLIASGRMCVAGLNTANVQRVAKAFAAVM

Molecule `OCCc1ccccc1` [2PE, 2-phenylethanol] showed a toxicity threshold in the data set with E. coli NST74 (E. coli growth) of about 2 g/L. For the same molecule, in the data set on E. coli NST74 (setting [1]), the “2PE concentration at which growth rate and yield were reduced” value was found to be 1 g/L; the “2PE concentration at which severe growth inhibition occurred” value is “about 2 g/L”. Moreover, in the data set on E. coli, the “level reported to inhibit E. coli” value was about 1000 µg/mL.
As for `O=C(O)C(=O)Cc1ccccc1` [phenylpyruvate], the Michaelis-Menten constant (Km) was 100 µM at ARO10 and 12 µM at TyrB.
